Measurements taken from patent US20240066027A1 (DOMAIN THERAPEUTICS, priority 2020, published 2024).

Key:
[1] = molecular target: T1, human PAR-2 (hPAR-2) receptor expressed in HEK-293 T cells in an endogenous manner (Homo sapiens, UniProt P55085); test: In vitro human PAR-2 functional antagonist activity using calcium assays (Fluo4AM, FLIPR Tetra); format: cell-based; conditions: HEK-293 T cells stimulated by an EC80 of the 2-Furoyl-LIGRLO-NH2 peptide after 10 min incubation with compound; 20 concentrations, duplicate, two independent experiments
T1 construct: human PAR-2 (hPAR-2) receptor expressed in HEK-293 T cells in an endogenous manner; endogenous in cells; host or cells: HEK-293 T cells
T1 sequence (P55085 26-397): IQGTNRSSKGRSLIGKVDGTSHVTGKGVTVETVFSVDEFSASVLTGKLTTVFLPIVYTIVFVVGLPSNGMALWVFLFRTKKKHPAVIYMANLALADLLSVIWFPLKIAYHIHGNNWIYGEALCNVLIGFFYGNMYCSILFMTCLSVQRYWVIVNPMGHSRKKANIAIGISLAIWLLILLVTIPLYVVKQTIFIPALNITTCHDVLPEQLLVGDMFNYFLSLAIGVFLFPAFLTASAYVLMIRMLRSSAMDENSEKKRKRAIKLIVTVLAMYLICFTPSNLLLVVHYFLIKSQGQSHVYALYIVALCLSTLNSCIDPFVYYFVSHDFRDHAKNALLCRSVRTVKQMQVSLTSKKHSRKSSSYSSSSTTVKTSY
How it was run: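 Antagonist activity was taken as the decrease in the calcium response to an EC80 of 2-Furoyl-LIGRLO-NH2, measured over 5 min. The agonist was added after a 10 min compound-alone step on the same plate. The HEK-293 T cells express PAR-2 endogenously and were loaded with 1 μM Fluo4AM. Signals were referenced to buffer and EC80-alone controls.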

Compound	melting point [°C]	IC50 [1] [µM]
CC(C)Cn1cc(C2=CCOCC2)c2ccc(C(=O)N3CCNC(=O)C3(C)C)nc21 [Example 45, 4-(3-(3,6-dihydro-2H-pyran-4-yl)-1-isobutyl-1H-pyrrolo[2,3-b]pyridine-6-carbonyl)-3,3-dimethylpiperazin-2-one]	225 to 230	> 10
CC(C)Cn1cc(C2CCOCC2)c2ccc(C(=O)N3CCNC(=O)C3(C)C)nc21 [Example 46, 4-(1-isobutyl-3-(tetrahydro-2H-pyran-4-yl)-1H-pyrrolo[2,3-b]pyridine-6-carbonyl)-3,3-dimethylpiperazin-2-one]	> 250	> 10
CC(C)Cn1cc(C2=CCNCC2)c2ccc(C(=O)N3CCNC(=O)C3(C)C)nc21 [Example 47, 4-(3-(1,2,3,6-tetrahydropyridin-4-yl)-1-isobutyl-1H-pyrrolo[2,3-b]pyridine-6-carbonyl)-3,3-dimethylpiperazin-2-one]	140 to 145	> 10
CC(C)(C)c1cn(-c2ccc(Cl)c(F)c2)c2ccc(C(=O)N3CCC(CC(=O)O)CC3)nc12 [Example 222, 2-(1-(3-(tert-butyl)-1-(4-chloro-3-fluorophenyl)-1H-pyrrolo[3,2-b]pyridine-5-carbonyl)piperidin-4-yl)acetic acid]	–	> 10
CC(C)Cn1cc(-c2cc3ccccc3o2)c2ccc(C(=O)N3CCNC(=O)C3(C)C)nc21 [Example 224, 4-(3-(benzofuran-2-yl)-1-isobutyl-1H-pyrrolo[2,3-b]pyridine-6-carbonyl)-3,3-dimethylpiperazin-2-one]	–	0.02 to 10
CC(C)Cn1cc(-c2cc3cc(F)ccc3[nH]2)c2ccc(C(=O)N3CCNC(=O)C3(C)C)nc21 [Example 225, 4-(3-(5-fluoro-1H-indol-2-yl)-1-isobutyl-1H-pyrrolo[2,3-b]pyridine-6-carbonyl)-3,3-dimethylpiperazin-2-one]	–	0.02 to 10
CC(C)Cc1nn(-c2ccc(Cl)c(F)c2)c2ccc(C(=O)N3CCNC(=O)C3(C)C)cc12 [Example 228, 4-(1-(4-chloro-3-fluorophenyl)-3-isobutyl-1H-indazole-5-carbonyl)-3,3-dimethylpiperazin-2-one]	–	0.02 to 10

The remaining lines, values ahead:

melting point [°C]	IC50 [1] [µM]	Compound
185 to 190	> 10	CC(C)Cn1cc(-c2cncnc2)c2ccc(C(=O)N3CCNC(=O)C3(C)C)nc21 [Example 36, 4-(1-isobutyl-3-(pyrimidin-5-yl)-1H-pyrrolo[2,3-b]pyridine-6-carbonyl)-3,3-dimethylpiperazin-2-one]
200 to 210	> 10	CC(C)Cn1cc(-c2ccncc2)c2ccc(C(=O)N3CCNC(=O)C3(C)C)nc21 [Example 37, 4-(1-isobutyl-3-(pyridin-4-yl)-1H-pyrrolo[2,3-b]pyridine-6-carbonyl)-3,3-dimethylpiperazin-2-one]
> 250	0.02 to 10	CC(C)Cn1cc(-c2ccc(C(F)(F)F)nc2)c2ccc(C(=O)N3CCNC(=O)C3(C)C)nc21 [Example 43, 4-(1-isobutyl-3-(6-(trifluoromethyl)pyridin-3-yl)-1H-pyrrolo[2,3-b]pyridine-6-carbonyl)-3,3-dimethylpiperazin-2-one]
> 250	> 10	CC(C)Cn1cc(-c2cnn(C)c2)c2ccc(C(=O)N3CCNC(=O)C3(C)C)nc21 [Example 44, 4-(1-isobutyl-3-(1-methyl-1H-pyrazol-4-yl)-1H-pyrrolo[2,3-b]pyridine-6-carbonyl)-3,3-dimethylpiperazin-2-one]
–	0.02 to 10	CC(C)Cn1cc(-c2ccc3c(c2)OCO3)c2ccc(C(=O)N3CCNC(=O)C3(C)C)nc21 [Example 223, 4-(3-(benzo[d][1,3]dioxol-5-yl)-1-isobutyl-1H-pyrrolo[2,3-b]pyridine-6-carbonyl)-3,3-dimethylpiperazin-2-one]
–	0.02 to 10	CC(C)Cn1cc(-c2ccc3ccccc3c2)c2ccc(C(=O)N3CCNC(=O)C3(C)C)nc21 [Example 226, 4-(1-isobutyl-3-(naphthalen-2-yl)-1H-pyrrolo[2,3-b]pyridine-6-carbonyl)-3,3-dimethylpiperazin-2-one]
